PMC8294059, “Identification and Immune Assessment of T Cell Epitopes in Five Plasmodium falciparum Blood Stage Antigens to Facilitate Vaccine Candidate Selection and Optimization” (Frontiers in Immunology, 2021)
Like-named read-outs stand apart in the source and are kept apart here. Where a SMILES comes first, the peptide text is derived from it.

Key:
HLA-A*2402 = HLA-A*2402 (Homo sapiens, UniProt P04439, D101N/D140Y/D185E/E176V/E190D/F33S/G103R/G107R/I119L/I121M/I306V/K335N/L105A/L180Q/L300P/N151K/N90K/Q86E/Q94H/R106L/R138H/R89G/T104I/T345S/V100E/W191G/Y123F); assay: In vitro class I HLA binding assay (fluorescence polarization competition); details: allele A*2402
In short: (§1)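 Cell-free competition assay: HLA heat-treated 53°C for 15 min to strip endogenous peptides, then mixed with fluorescent high-affinity control peptide and test peptides for 72 h to equilibrium. Displacement read by fluorescence polarization as percent inhibition; IC50 derived from a concentration range.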

HLA-A*0101 = HLA-A*0101 (Homo sapiens, UniProt P04439, A114D/A174V/A182V/D101N/D185E/E176A/E190D/L180R/Q94H/R68K/S129P/T187R/V100A/V91M/W191G); assay: biochemical; type: binding; details: allele A*0101, fluorescence polarization competition; for IC50: read-out: IC50 (nM), in vitro HLA binding affinity
In short: as §1

HLA-A*0301 = HLA-A*0301 (Homo sapiens, UniProt P04439); assay: biochemical; type: binding; details: allele A*0301, fluorescence polarization competition; for IC50: read-out: IC50 (nM), in vitro HLA binding affinity
In short: as §1

HLA-A*0201 = HLA-A*0201 (Homo sapiens, UniProt P04439, D140Y/D185E/D98H/E176V/E277Q/G131W/G231S/I119V/I121R/I166T/I218V/L300P/L318F/N151K/N90K/P208A/P217A/Q86G/Q94H/R138H/R169H/T345S); assay: In vitro class I HLA binding assay (fluorescence polarization competition); details: allele A*0201; fluorescence polarization competition; read-out: IC50 (nM), in vitro HLA binding affinity
In short: as §1

[1] = fluorescence polarization competition, read-out: IC50 (nM), in vitro HLA binding affinity
[2] = cell-free competition, fluorescence polarization at 72 hours, Non-binder = no dose-dependent inhibition, read-out: IC50

Molecule: N=C(N)NCCC[C@H](NC(=O)CNC(=O)[C@H](Cc1ccccc1)NC(=O)[C@@H](N)CC(N)=O)C(=O)NCC(=O)N[C@@H](CCC(N)=O)C(=O)N[C@@H](CC(N)=O)C(=O)N[C@@H](Cc1ccc(O)cc1)C(=O)N[C@@H](Cc1c[nH]c2ccccc12)C(=O)O [AMA1_020] (H-NFGRGQNYW-OH)
- IC50 (HLA-A*2402; [1]): 229 nM

Molecule: CC(C)C[C@H](NC(=O)[C@@H]1CCCN1C(=O)[C@H](Cc1ccc(O)cc1)NC(=O)[C@@H](N)CCC(=O)O)C(=O)N[C@@H](Cc1c[nH]cn1)C(=O)N[C@@H](CCC(N)=O)C(=O)N[C@@H](CCC(=O)O)C(=O)N[C@@H](Cc1c[nH]cn1)C(=O)N[C@H](C(=O)N[C@@H](Cc1ccc(O)cc1)C(=O)O)[C@@H](C)O [AMA1_052] (H-EYPLHQEHTY-OH)
- IC50 (HLA-A*2402; [1]): 999 nM

Molecule: CSCC[C@H](NC(=O)[C@H](Cc1ccc(O)cc1)NC(=O)[C@@H](N)CC(N)=O)C(=O)NCC(=O)N[C@@H](CC(N)=O)C(=O)N1CCC[C@H]1C(=O)N[C@@H](Cc1c[nH]c2ccccc12)C(=O)N[C@H](C(=O)N[C@@H](CCC(=O)O)C(=O)O)[C@@H](C)O [AMA1_104] (H-NYMGNPWTE-OH)
- IC50 (HLA-A*2402; [1]): 37900 nM

Molecule: CC(C)C[C@H](NC(=O)[C@H](Cc1ccc(O)cc1)NC(=O)[C@@H](N)CCC(N)=O)C(=O)N[C@@H](CCCCN)C(=O)N[C@@H](CC(=O)O)C(=O)NCC(=O)NCC(=O)N[C@@H](Cc1ccccc1)C(=O)N[C@@H](C)C(=O)N[C@@H](Cc1ccccc1)C(=O)O [AMA1_174] (H-QYLKDGGFAF-OH)
- IC50 (HLA-A*2402; [1]): 41.9 nM

Molecule: CC[C@H](C)[C@H](NC(=O)[C@H](CC(=O)O)NC(=O)[C@@H](N)CCC(=O)O)C(=O)N1CCC[C@H]1C(=O)N[C@@H](Cc1c[nH]cn1)C(=O)N[C@H](C(=O)N[C@@H](CC(N)=O)C(=O)N[C@@H](CCC(=O)O)C(=O)N[C@@H](Cc1ccccc1)C(=O)O)C(C)C [AMA1_321] (H-EDIPHVNEF-OH)
- IC50 (HLA-A*2402; [1]): 83000 nM

Molecule: CC[C@H](C)[C@H](NC(=O)[C@H](CC(=O)O)NC(=O)[C@H](C)NC(=O)[C@H](Cc1ccc(O)cc1)NC(=O)[C@H](CCC(=O)O)NC(=O)[C@H](CC(=O)O)NC(=O)[C@H](CCCCN)NC(=O)[C@H](Cc1ccc(O)cc1)NC(=O)[C@@H](N)CCC(=O)O)C(=O)O [AMA1_527] (H-EYKDEYADI-OH)
- IC50 (HLA-A*2402; [1]): 2100 nM

Molecule: CC[C@H](C)[C@H](NC(=O)[C@@H](N)CCSC)C(=O)N[C@H](C(=O)N1CCC[C@H]1C(=O)N[C@@H](Cc1ccccc1)C(=O)N[C@@H](Cc1c[nH]cn1)C(=O)N[C@@H](CCCCN)C(=O)N[C@@H](CCCCN)C(=O)N[C@@H](Cc1ccccc1)C(=O)O)[C@@H](C)CC [CYRPA_001] (H-MIIPFHKKF-OH)
- IC50 (HLA-A*2402; [1]): 295 nM

Molecule: CC[C@H](C)[C@H](NC(=O)[C@H](Cc1ccccc1)NC(=O)[C@H](CCCCN)NC(=O)[C@H](CCCCN)NC(=O)[C@H](Cc1c[nH]cn1)NC(=O)[C@H](Cc1ccccc1)NC(=O)[C@@H]1CCCN1)C(=O)N[C@@H](CO)C(=O)N[C@@H](Cc1ccccc1)C(=O)N[C@@H](Cc1ccccc1)C(=O)O [CYRPA_004] (H-PFHKKFISFF-OH)
- IC50 (HLA-A*2402; [1]): 35.6 nM

Molecule: CC[C@H](C)[C@H](N)C(=O)N[C@@H](Cc1ccc(O)cc1)C(=O)N[C@@H](CCCCN)C(=O)N[C@@H](CCCNC(=N)N)C(=O)N[C@@H](CCC(=O)O)C(=O)N[C@@H](CC(C)C)C(=O)N[C@@H](Cc1ccc(O)cc1)C(=O)N[C@@H](CC(N)=O)C(=O)N[C@H](C(=O)O)[C@@H](C)CC [CYRPA_055] (H-IYKRELYNI-OH)
- IC50 (HLA-A*2402; [1]): 86.8 nM

Molecule: CC(C)C[C@H](NC(=O)[C@H](CCCCN)NC(=O)[C@H](Cc1ccc(O)cc1)NC(=O)[C@@H](N)CC(N)=O)C(=O)NCC(=O)N[C@H](C(=O)N[C@@H](CCC(N)=O)C(=O)N[C@@H](Cc1ccc(O)cc1)C(=O)N[C@@H](Cc1ccccc1)C(=O)N[C@@H](Cc1ccccc1)C(=O)O)C(C)C [CYRPA_218] (H-NYKLGVQYFF-OH)
- IC50 (HLA-A*2402; [1]): 26300 nM

Molecule: CC[C@H](C)[C@H](NC(=O)[C@H](Cc1ccc(O)cc1)NC(=O)[C@H](CCC(=O)O)NC(=O)[C@H](CC(=O)O)NC(=O)[C@H](CC(N)=O)NC(=O)[C@H](CC(C)C)NC(=O)[C@@H](N)[C@@H](C)O)C(=O)N[C@H](C(=O)N[C@@H](CO)C(=O)N[C@@H](Cc1ccc(O)cc1)C(=O)O)C(C)C [CYRPA_285] (H-TLNDEYIVSY-OH)
- IC50 (HLA-A*0101): 213000 nM
- IC50 (HLA-A*0301): 304000 nM

Molecule: CC[C@H](C)[C@H](N)C(=O)N[C@@H](Cc1ccccc1)C(=O)N[C@@H](Cc1ccccc1)C(=O)N[C@@H](CC(N)=O)C(=O)N[C@@H](CC(N)=O)C(=O)N[C@@H](CCC(=O)O)C(=O)N[C@@H](CC(N)=O)C(=O)N[C@@H](CO)C(=O)N[C@H](C(=O)O)[C@@H](C)CC [CYRPA_305] (H-IFFNNENSI-OH)
- IC50 (HLA-A*2402; [1]): 56.9 nM

Molecule: CC[C@H](C)[C@H](NC(=O)[C@H](CCCCN)NC(=O)[C@H](CC(N)=O)NC(=O)[C@H](CCC(=O)O)NC(=O)[C@H](C)NC(=O)[C@H](CCCCN)NC(=O)[C@@H](NC(=O)[C@H](CO)NC(=O)[C@H](Cc1ccc(O)cc1)NC(=O)CN)[C@@H](C)O)C(=O)O [EBA175_0255] (H-GYSTKAENKI-OH)
- IC50 (HLA-A*2402; [2]): 1840 nM

Molecule: CC(C)C[C@H](NC(=O)[C@H](CCCCN)NC(=O)[C@H](CCCCN)NC(=O)[C@H](CC(=O)O)NC(=O)[C@H](Cc1ccc(O)cc1)NC(=O)[C@H](CC(C)C)NC(=O)[C@H](CC(N)=O)NC(=O)[C@H](Cc1ccc(O)cc1)NC(=O)[C@@H](N)CCCNC(=N)N)C(=O)O [EBA175_1316] (H-RYNLYDKKL-OH)
- IC50 (HLA-A*2402; [2]): 172 nM

Molecule: C[C@@H](O)[C@H](NC(=O)[C@H](Cc1ccccc1)NC(=O)[C@H](Cc1ccc(O)cc1)NC(=O)[C@@H](N)CO)C(=O)N[C@@H](Cc1ccc(O)cc1)C(=O)N[C@@H](CC(=O)O)C(=O)N[C@@H](CO)C(=O)N[C@@H](CCC(=O)O)C(=O)N[C@@H](CCC(=O)O)C(=O)N[C@@H](Cc1ccc(O)cc1)C(=O)O [EBA175_1390] (H-SYFTYDSEEY-OH)
- IC50 (HLA-A*2402; [2]): 22300 nM

Molecule: CC[C@H](C)[C@H](NC(=O)[C@H](Cc1ccccc1)NC(=O)[C@H](CC(C)C)NC(=O)[C@H](Cc1ccc(O)cc1)NC(=O)[C@@H](N)CCCCN)C(=O)N1CCC[C@H]1C(=O)N[C@@H](CO)C(=O)N[C@@H](Cc1c[nH]cn1)C(=O)N[C@@H](CC(N)=O)C(=O)O [RH5_096] (H-KYLFIPSHN-OH)
- IC50 (HLA-A*2402; [1]): 6120 nM

Molecule: CC[C@H](C)[C@H](NC(=O)[C@H](Cc1ccccc1)NC(=O)[C@@H](N)CC(C)C)C(=O)N1CCC[C@H]1C(=O)N[C@@H](CO)C(=O)N[C@@H](Cc1c[nH]cn1)C(=O)N[C@@H](CC(N)=O)C(=O)N[C@@H](CO)C(=O)N[C@@H](Cc1ccccc1)C(=O)O [RH5_098] (H-LFIPSHNSF-OH)
- IC50 (HLA-A*2402; [1]): 141 nM

Molecule: CC[C@H](C)[C@H](NC(=O)[C@H](Cc1ccccc1)NC(=O)[C@@H](N)CO)C(=O)N[C@@H](CCCCN)C(=O)N[C@@H](CCCCN)C(=O)N[C@@H](Cc1ccc(O)cc1)C(=O)N[C@@H](CO)C(=O)N[C@H](C(=O)N[C@@H](Cc1ccccc1)C(=O)O)C(C)C [RH5_105] (H-SFIKKYSVF-OH)
- IC50 (HLA-A*2402; [1]): 38.3 nM

Molecule: CC(C)C[C@H](NC(=O)[C@H](Cc1c[nH]cn1)NC(=O)[C@H](CCCCN)NC(=O)[C@H](Cc1ccc(O)cc1)NC(=O)[C@H](Cc1ccc(O)cc1)NC(=O)[C@H](CC(=O)O)NC(=O)[C@H](CC(C)C)NC(=O)[C@@H](N)Cc1ccccc1)C(=O)N[C@@H](CO)C(=O)N[C@@H](Cc1ccc(O)cc1)C(=O)O [RH5_181] (H-FLDYYKHLSY-OH)
- IC50 (HLA-A*0101): 646 nM
- IC50 (nM), in vitro HLA binding affinity (HLA-A*0301): Non-Binder

Molecule: CC[C@H](C)[C@H](NC(=O)[C@H](CO)NC(=O)[C@@H](N)CC(N)=O)C(=O)N[C@@H](Cc1ccc(O)cc1)C(=O)N[C@@H](Cc1c[nH]cn1)C(=O)N[C@@H](CCCCN)C(=O)N[C@@H](CO)C(=O)N[C@@H](CO)C(=O)N[C@H](C(=O)N[C@@H](Cc1ccc(O)cc1)C(=O)O)[C@@H](C)O [RH5_191] (H-NSIYHKSSTY-OH)
- IC50 (nM), in vitro HLA binding affinity (HLA-A*0101): Non-Binder
- IC50 (HLA-A*0301): 101000 nM

Molecule: CC[C@H](C)[C@H](NC(=O)[C@@H](N)CO)C(=O)N[C@@H](Cc1ccc(O)cc1)C(=O)N[C@@H](Cc1c[nH]cn1)C(=O)N[C@@H](CCCCN)C(=O)N[C@@H](CO)C(=O)N[C@@H](CO)C(=O)N[C@H](C(=O)N[C@@H](Cc1ccc(O)cc1)C(=O)O)[C@@H](C)O [RH5_192] (H-SIYHKSSTY-OH)
- IC50 (nM), in vitro HLA binding affinity (HLA-A*0101): Non-Binder
- IC50 (HLA-A*0301): 5930 nM

Molecule: CSCC[C@H](NC(=O)[C@H](CCSC)NC(=O)[C@@H](N)CCCCN)C(=O)N[C@@H](CC(=O)O)C(=O)N[C@@H](CCC(=O)O)C(=O)N[C@@H](Cc1ccc(O)cc1)C(=O)N[C@@H](CC(N)=O)C(=O)N[C@H](C(=O)N[C@@H](CCCCN)C(=O)N[C@@H](CCCCN)C(=O)O)[C@@H](C)O [RH5_302] (H-KMMDEYNTKK-OH)
- IC50 (HLA-A*0201): 511000 nM
- IC50 (HLA-A*0301): 8480 nM

Molecule: C[C@@H](O)[C@H](NC(=O)[C@@H](N)CO)C(=O)N[C@@H](CS)C(=O)N[C@@H](Cc1ccc(O)cc1)C(=O)NCC(=O)N[C@@H](CC(N)=O)C(=O)N[C@@H](CCCNC(=N)N)C(=O)N[C@@H](Cc1ccccc1)C(=O)N[C@@H](CC(N)=O)C(=O)N[C@@H](Cc1ccc(O)cc1)C(=O)O [RIPR_0648] (H-STCYGNRFNY-OH)
- IC50 (HLA-A*0101): 54000 nM
- IC50 (nM), in vitro HLA binding affinity (HLA-A*0301): Non-binder

Molecule: RTFKKMMDEY [RH5_298]
- IC50 (nM), in vitro HLA binding affinity (HLA-A*0101): Non-Binder
- IC50 (nM), in vitro HLA binding affinity (HLA-A*0301): Non-Binder
